In US7842700B2, “Crystals of isopropyl ester of N-(2,6-dichlorobenzoyl)-4-[6-(methylamino)methyl-1-methyl-2,4-dioxo-1,4-dihydroquinazoline-3(2H)-yl]-L-phenylalanine hydrochloride, production method thereof and use thereof” (Ajinomoto Co., Inc., priority 2005, dated 2010):

Legend:
[1] = system: lymphocytes in the peripheral blood; experiment: Activity to elevate the number of lymphocytes in the peripheral blood in a rat; type: in vivo; settings: 30 mg/kg oral, male Wistar rats, 12 hours after administration, control = 100%
Procedure: Activity to Elevate the Number of Lymphocytes in the Peripheral Blood in a Rat
Therefore, the activity of the compound of the formula (I) to elevate the number of lymphocytes in the rat was examined.
The dosing solution was prepared by dissolving the compound of the formula (I) in dimethylsulfoxide, adding a mixed solution of polyethylene glycol 400: propylene glycol=1:1 thereto and turning it upside and down repeatedly. The final concentration of DMSO was adjusted to 2.5%.
The dosing solution of a test substance (30 mg/kg) was orally administered to male Wistar rats (6 to 8 weeks age) in the amount of 4 mL/kg. After the settled time points after the administration, the blood was drawn from the abdominal large vein under anesthesia and mixed in an EDTA-2K coated container for blood collection. Then, the number of lymphocytes in the peripheral blood was determined by an automated comprehensive hematology analyzer (SF-3000, Sysmex). The test was conducted in n=5, and the ratio (%) of the number of lymphocytes in the peripheral blood in a test substance-administered group to that in a vehicle-treated group (a control group) was calculated while the average value of the number of lymphocytes in the peripheral blood in a control group was determined to be 100%.

[2] = Powder X-ray diffraction measurement under the control of relative humidity; type: physicochemical; settings: dry: 50° C. under reduced pressure; wet: 85% relative humidity
Procedure: Powder X-Ray Diffraction Measurement Under the Control of Relative Humidity
The powder X-ray diffraction of each of crystal form Cl5 and crystal form Mal2 was measured in the following condition, and the diffraction patterns between dry one and wet one were compared. However, there was no difference thereof in each crystal.
Drying condition (dry): measurement of a sample with drying it at 50° C. under reduced pressure
Humid condition (wet): measurement of a sample under 85% relative humidity
Powder diffractometer: RINT2100S by RIGAKU (and a temperature and humidity attachment for said diffractometer) Humidity generator: SRH-1R Shinei Co., Inc.

[3] = Preservation stability test; type: physicochemical; settings: 4 weeks; 40° C./75% relative humidity opened, 60° C./opened, vs room temperature/closed control
Procedure: Preservation Stability Test
Crystal form Cl5, crystal form Br5 and crystal form A were preserved in the following condition, and then the amount of impurities in each sample was compared. However, the increase in the impurities by heating was not observed.
• 40° C./75% relative humidity—opened • 60° C./opened • Room temperature/closed (control)

Structure (SMILES) | ratio (%) of the number of lymphocytes in the peripheral blood to that in a vehicle-treated group [1] [%] | difference of powder X-ray diffraction patterns between dry and wet [2] | increase in the impurities by heating [3]
CNCc1ccc2c(c1)c(=O)n(-c1ccc(C[C@H](NC(=O)c3c(Cl)cccc3Cl)C(=O)OC(C)C)cc1)c(=O)n2C [compound of the formula (I), isopropyl ester of N-(2,6-dichlorobenzoyl)-4-[6-(methylamino)methyl-1-methyl-2,4-dioxo-1,4-dihydroquinazoline-3(2H)-yl]-L-phenylalanine] | ≥ 150 | – | –
CNCc1ccc2c(c1)c(=O)n(-c1ccc(C[C@H](NC(=O)c3c(Cl)cccc3Cl)C(=O)OC(C)C)cc1)c(=O)n2C [crystal form Cl5] | – | no difference | not observed
